Literature values, collected in patent US20110020252A1, “METHOD OF LONG LASTING HUMAN SKIN TANNING” (priority 2010, published 2011).

System: gram-positive cocci (including methicillin-resistant Staphylococcus aureus-MSRA), some gram-negative organisms, Legionella, many mycobacterium and some fungi
Conditions: cited from earlier work

Compound: CO[C@H]1/C=C/O[C@@]2(C)Oc3c(C)c(O)c4c(O)c(c(/C=N/N5CCN(C)CC5)c(O)c4c3C2=O)NC(=O)/C(C)=C\C=C\[C@H](C)[C@H](O)[C@@H](C)[C@@H](O)[C@@H](C)[C@H](OC(C)=O)[C@@H]1C [Rifampin]
- antimicrobial activity: good activity
